Converted amounts (≈) assume the structure as drawn.
The molecules below were run on Aspergillus fumigatus (assay: MIC measurement, YAG medium). Conditions: Aspergillus fumigatus, read-out: MIC A. fumigatus.
Type: cell-based
Experimental: Between 1 and 5 mgs of compound were accurately weighed out into a sterile Eppendorf tube. The compound was dissolved in DMSO to give a solution containing […]. Tubes were stored at −20° C. until required.
On the day of testing thawed solutions were vortex mixed to ensure homogeneity. 30 μL of solution was removed and added to 570 μL of sterile water in a separate sterile Eppendorf. The thoroughly mixed solution was used to prepare a series of doubling dilutions in water, in a deep well plate. Thirteen replicate plates were prepared using a Minitrak by aspirating 20 μL from each well into eleven clear polystyrene 96 well plates.
Spores of Aspergillus spp. (Aspergillus fumigatus [two strains], Aspergillus terreus [two strains], Aspergillus niger and Aspergillus flavus) were harvested from cultures grown on Sabarauds agar for 5 days, and resuspended in PBS/Tween 80 to approx 1×10^7 cfu/mL. Other filamentous fungi (Absidia corymbifera, Fusarium solani, Rhizomucor, Scedosporium spp., Trichophyton spp.), were grown on Sabarauds agar for 2-10 days and spores/hyphae resuspended in PBS/Tween to give approx 1×10^7 cfu/mL. Candida species (Candida albicans, Candida glabrata, Candida krusei, Candida parapsilosis and Candida tropicalis) were grown on Sabarauds agar, cells were harvested from the agar using a sterile loop and resuspended in PBS/Tween 80 to approx 1×10^6 cfu/mL. Each organism suspension was diluted in RPMI medium, containing 2% glucose and 0.135 M MOPS buffer (pH 7.0) to 0.5-2×10^4 cfu/mL for Aspergillus spp. and other filamentous fungi and 0.5-2×10^3 cfu/mL for yeast. 80 μL of an organism suspension was added to each well of the plate containing drug dilutions.
This produced MIC plates with a drug range 50-0.05 mg/L and organism inocula of 1-2×10^4 cfu/mL for Aspergillus spp. and other filamentous fungi and 1-2×10^3 cfu/mL for yeasts. All plates were incubated for 24-48 hrs at 35° C. Growth was assessed by monitoring the optical density at 485 nm for each well. The MIC of a compound is the lowest drug concentration that inhibits growth of an organism by >80% compared with a drug free control. MICs are recorded as mg/L. Other growth media can be used for susceptibility testing, and the activity of the described compounds can also be assessed in a medium comprising 1% glucose, 1% ammonium chloride and 0.5% yeast extract (YAG medium). To perform MIC tests in this medium, dilutions of compounds are prepared in microtitre plates as described above. Fungal strains to be tested are grown and harvested in an identical manner to that described above, each organism suspension is then diluted in YAG medium to 0.5-2×10^4 cfu/mL for Aspergillus spp. and other filamentous fungi and 0.5-2×10^3 cfu/mL for yeast. 80 μL of an organism suspension was added to each well of the plate containing drug dilutions. This produced MIC plates with a drug range 50-0.05 mg/L and organism inocula of 1-2×10^4 cfu/mL for Aspergillus spp. and other filamentous fungi and 1-2×10^3 cfu/mL for yeasts. All plates were incubated for 24 hrs at 35° C. Growth was assessed by monitoring the optical density at 485 nm for each well. The MIC of a compound is the lowest drug concentration that inhibits growth of an organism by >70% compared with a drug free control. MICs are recorded as mg/L. In cases where the MIC of an organism is […] mg/L the MIC is repeated using a concentration range of 0.5-0.0005 mg/L. MIC tests in YAG medium have more clear-cut endpoints and have slightly lower MICs than those performed in RPMI medium.
The following organisms were tested: Absidia corymbifera, Aspergillus flavus, Aspergillus fumigatus AF293 and AF210, Aspergillus niger, Aspergillus terreus AT4 and AT49, Candida albicans, Candida glabrata, Candida krusei, Candida parapsilosis, Candida tropicalis, Fusarium solani, Rhizomucor sp., Scedosporium apiospermum, Scedosporium prolificans, Trichophyton mentagrophytes, and Trichophyton rubrum.

Structure (SMILES) | MIC
O=C1Cc2cc(NC(=O)C(=O)c3c(-c4ccccc4)cc4ccccn34)ccc2N1 [Example 9, 2-Oxo-N-(2-oxo-2,3-dihydro-1H-indol-5-yl)-2-(2-phenyl-indolizin-3-yl)-acetamide] | > 10 mg/L

Same assay, conditions: Aspergillus fumigatus; YAG medium; MIC banded into grades; strain AF293; read-out: MIC A. fumigatus

MIC | Structure (SMILES)
> 10 mg/L | Cc1c(-c2ccccc2)c2ccccn2c1C(=O)C(=O)Nc1ccc(N2CCOCC2)cc1 [Example 7, 2-(2-methyl-1-phenyl-indolizin-3-yl)-N-(4-morpholin-4-yl-phenyl)-2-oxo-acetamide]
> 10 mg/L | CN1/C(=N/c2ccc(NC(=O)C(=O)c3c(-c4ccccc4)cc4ccccn34)cc2)OCC1(C)C [Example 8, 2-oxo-2-(2-phenyl-indolizin-3-yl)-N-{4-[3,4,4-trimethyl-oxazolidin-(2Z)-ylideneamino]-phenyl}-acetamide]
< 1 mg/L | O=C(Nc1ccc(C(=O)OC2CCOCC2)c(O)c1)C(=O)c1c(-c2ccccc2)cc2ccccn12 [Example 11, 2-hydroxy-4-[2-oxo-2-(2-phenyl-indolizin-3-yl)-acetylamino]-benzoic acid tetrahydro-pyran-4-yl ester]
> 10 mg/L | CC(C)c1nc(C(C)(C)c2cccc(NC(=O)C(=O)c3c(-c4ccccc4)cc4ccccn34)c2)cn1C [Example 14, N-{3-[1-(2-Isopropyl-1-methyl-1H-imidazol-4-yl)-1-methyl-ethyl]-phenyl}-2-oxo-2-(2-phenyl-indolizin-3-yl)-acetamide]
1 to 10 mg/L (≈ 1.98 to 19.8 µM) | CC(C)c1nc(C(C)(C)c2ccc(NC(=O)C(=O)c3c(-c4ccccc4)cc4ccccn34)cc2)cn1C [Example 16, N-{4-[1-(2-isopropyl-1-methyl-1H-imidazol-4-yl)-1-methyl-ethyl]-phenyl}-2-oxo-2-(2-phenyl-indolizin-3-yl)-acetamide]

Further lines, the molecule ahead of its results:

Structure (SMILES) | MIC
O=C(Nc1ccc(N2CCS(=O)(=O)CC2)cc1)C(=O)c1c(-c2ccccc2)cc2ccccn12 [Example 1, N-[4-(1,1-Dioxo-1λ^6-thiomorpholin-4-yl)-phenyl]-2-oxo-2-(2-phenyl-indolizin-3-yl)-acetamide] | > 10 mg/L
CON=C1CCN(c2ccc(NC(=O)C(=O)c3c(-c4ccccc4)cc4ccccn34)cc2)CC1 [Example 2, N-[4-(4-methoxyimino-piperidin-1-yl)-phenyl]-2-oxo-2-(2-phenyl-indolizin-3-yl)-acetamide] | < 1 mg/L
O=C(Nc1ccccc1F)C(=O)c1c(-c2ccccc2)cc2ccc3ccccc3n12 [Example 4, N-(2-fluoro-phenyl)-2-oxo-2-(2-phenyl-pyrrolo[1,2-a]quinolin-1-yl)-acetamide] | > 10 mg/L
CS(=O)(=O)NC(=O)c1ccc(NC(=O)C(=O)c2c(-c3ccccc3)cc3ccccn23)cc1 [Example 5, N-(4-methanesulfonylaminocarbonyl-phenyl)-2-oxo-2-(2-phenyl-indolizin-3-yl)-acetamide] | > 10 mg/L
COc1ccc(NC(=O)C(=O)c2c(C)c(-c3ccccc3)c3ccccn23)cc1 [Example 6, N-(4-methoxy-phenyl)-2-(2-methyl-1-phenyl-indolizin-3-yl)-2-oxo-acetamide] | > 10 mg/L
CCC(CC)N1CCN(c2ccc(NC(=O)C(=O)c3c(-c4ccccc4Cl)cc4ccccn34)cn2)CC1 [Example 10, 2-[2-(2-chloro-phenyl)-indolizin-3-yl]-N-{6-[4-(1-ethyl-propyl)-piperazin-1-yl]-pyridin-3-yl}-2-oxo-acetamide] | < 1 mg/L
Cc1cc(NC(=O)C(=O)c2c(-c3ccccc3)cc3ccccn23)ccc1OCCCn1ccnc1C(C)C [Example 12, N-{4-[3-(2-Isopropyl-imidazol-1-yl)-propoxy]-3-methyl-phenyl}-2-oxo-2-(2-phenyl-indolizin-3-yl)-acetamide] | 1 to 10 mg/L (≈ 1.92 to 19.2 µM)
CC(C)c1ncc(C(C)(C)c2cccc(NC(=O)C(=O)c3c(-c4ccccc4)cc4ccccn34)c2)n1C [Example 15, N-{3-[1-(2-Isopropyl-3-methyl-3H-imidazol-4-yl)-1-methyl-ethyl]-phenyl}-2-oxo-2-(2-phenyl-indolizin-3-yl)-acetamide] | > 10 mg/L

From patent US8604029B2, “2-[(2-substituted)-indolizin-3-yl]-2-oxo-acetamide derivatives as antifungal agents” (F2G Ltd British Body Corporate, priority 2006, dated 2013)
